From paper PMC9950073, “Alleviation of arthritis through prevention of neutrophil extracellular traps by an orally available inhibitor of protein arginine deiminase 4” (Scientific Reports, 2023)

Tested on: collagen induced arthritis
Experiment: Collagen induced arthritis model in DBA/1 mice
Assay type: in vivo
Conditions: Dexamethasone dose not given; for clinical score: JBI-589 50 mg/kg po BID day 0-45; for clinical score / bone erosion (histopathology) / joint inflammation (histopathology) / pannus formation (histopathology): Etanercept 25 mg/kg IP day 31–45

| Compound | clinical score | bone erosion (histopathology) (JBI-589 50 mg/kg po BID) | joint inflammation (histopathology) (JBI-589 50 mg/kg po BID) | pannus formation (histopathology) (JBI-589 50 mg/kg po BID) | spleen weight (day 45, JBI-589 50 mg/kg po BID) | body weight (end of study, JBI-589 50 mg/kg po BID) |
| --- | --- | --- | --- | --- | --- | --- |
| C[C@@H]1C[C@H]2[C@@H]3CCC4=CC(=O)C=C[C@]4(C)[C@@]3(F)[C@@H](O)C[C@]2(C)[C@@]1(O)C(=O)CO [Dexamethasone] | strong inhibition | significantly decreased | significantly decreased | significantly decreased | stronger reduction | stronger reduction |
| Etanercept | comparable inhibition | no appreciable effect | no appreciable effect | no appreciable effect |  |  |
